Data from publication PMC9635925, “Biological screening of a unique drug library targeting MRGPRX2” (Frontiers in Immunology, 2022).
Positions count from the first letter of the chain named. Where a name gives a salt, the structure may show the parent alone.

Tests used:
[1] = molecular target: T1, MRGPRX2-MUT (MRGPRX2 N62S mutation) (Homo sapiens, UniProt Q96LB1, N62S); assay: Primary HTS, Ca2+ mobilization (fluorescence ratio, B-score) in HEK293-Gα15 cells stably expressing the MRGPRX2 N62S mutation; assay type: cell-based; conditions: for B-scores (MUT): 10 μM compound, MRGPRX2-MUT (N62S) cells; for Change of B-scores (%): 10 μM
T1 construct: expressed in transfected cells
T1 sequence (Q96LB1 1-330 N62S): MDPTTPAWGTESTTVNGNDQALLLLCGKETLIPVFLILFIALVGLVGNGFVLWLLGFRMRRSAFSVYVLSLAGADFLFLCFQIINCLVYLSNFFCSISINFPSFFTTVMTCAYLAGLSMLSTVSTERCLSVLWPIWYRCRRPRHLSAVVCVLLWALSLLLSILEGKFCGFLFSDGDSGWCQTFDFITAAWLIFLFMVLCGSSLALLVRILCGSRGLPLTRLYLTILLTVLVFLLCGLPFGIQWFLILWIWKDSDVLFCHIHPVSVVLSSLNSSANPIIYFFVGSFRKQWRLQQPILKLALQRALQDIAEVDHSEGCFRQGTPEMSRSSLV
Procedure: (§1) We performed an experimental HTS on the Johns Hopkins Drug Library, which includes 1,811 (57%) FDA-approved drugs among 3,456 total compounds (28% of all known drugs worldwide) ([15]). We performed the HTS at the Johns Hopkins University ChemBioCORE Facility and employed HEK293-Gα15 cell lines that stably expressed MRGPRX2 protein.
(§2) We utilized 10 μM compounds (each compound was tested in triplicate) and calculated the compound effect using the signal-to-background fluorescence ratio (see Supplementary Methods).
(§3) In the HTS, we determined MRGPRX2 activation by a Ca^2+ mobilization assay that recorded a fluorescence change by utilizing a Functional Drug Screening System (FDSS 6000; Hamamatsu); we evaluated the compound effect using the calculated fluorescence ratio. We further applied the B-score normalization, which provided robust corrections for variation in fluorescence ratio ([22]).
(§4) We performed an experimental high-throughput screening (HTS) on the Johns Hopkins Drug Library (JHDL), which includes 1,811 (57%) FDA-approved drugs among 3,456 total compounds (28% of all known drugs worldwide). The remaining compounds in JHDL are catalogued in one or more of the resources below: British Approved Names (BAN); Dénominations Communes Françaises (DCF); International Nonproprietary Names (INN); Japanese Adopted Names (JAN); MI (Merck Index); National Formulary drug name (NF); and United States Accepted Names (USAN). The JHU drug library is stocked in 96 well plates at 10 mM in 100% DMSO and stored at -80 °C. We used a final concentration of 10 uM for each compound and DMSO concentration of 0.1% (tested in triplicate). […] We evaluated compound effect using the calculated fluorescence ratio. We further calculated B-scores, which are a relative potency score similar to Z scores in that they are the ratio of an adjusted raw value in the numerator to a measure of variability in the denominator.

[2] = molecular target: T2, MRGPRX2-WT (wild-type MRGPRX2 receptor) (Homo sapiens, UniProt Q96LB1); assay: Primary HTS, Ca2+ mobilization (fluorescence ratio, B-score) in HEK293-Gα15 cells stably expressing wild-type MRGPRX2; assay type: cell-based; conditions: 10 μM compound
T2 construct: expressed in transfected cells
T2 sequence (Q96LB1 1-330): T1 sequence (Q96LB1 1-330 N62S) with S62N
Procedure: as §1, §2, §3, §4

[3] = MRGPRX2-MUT in comparison to MRGPRX2-WT cells, Supplementary Table 1
[4] = MRGPRX2-MUT versus MRGPRX2-WT cells, Supplementary Table 2
[5] = MRGPRX2-MUT in comparison to MRGPRX2-WT cells, Table 1

| Structure (SMILES) | B-scores (MUT) ([1]; Supplementary Table 1) | B-scores (MUT) ([1]; Supplementary Table 2) | Change of B-scores (%) [1, 3] | Change of B-scores (%) [1, 4] | B-scores (WT) ([2]; Supplementary Table 1) | B-scores (WT) ([2]; Supplementary Table 2) | B-scores (MUT) ([1]; Table 1) | Change of B-scores (%) [1, 5] | B-scores (WT) ([2]; Table 1) |
| --- | --- | --- | --- | --- | --- | --- | --- | --- | --- |
| CC(=O)c1ccc2c(c1)N(CCCN(C)C)c1ccccc1S2 [Acepromazine Maleate] | 28.97 | 28.97 | -34.19% | -34.19% | 44.01 | 44.01 |  |  |  |
| CC(=O)c1ccc2c(c1)N(CCCN(C)C)c1ccccc1S2 [Acepromazine] |  | 43.26 |  | 88.18% |  | 22.99 |  |  |  |
| CC(=O)OCC[N+](C)(C)C [Acetylcholine Chloride] | 65.23 | 65.23 | 38.45% | 38.45% | 47.11 | 47.11 |  |  |  |
| CC(=O)OCC[N+](C)(C)C [Acetylcholine] | 80.61 | 80.61 | 245.01% | 245.01% | 23.36 | 23.36 |  |  |  |
| Nc1ncnc2c1ncn2[C@@H]1O[C@H](CO)[C@@H](O)[C@H]1O [Adenosine] | 0.32 |  | -99.09% |  | 35.61 |  |  |  |  |
| CC(C)(C)NCC(O)c1ccc(O)c(CO)c1.CC(C)(C)NCC(O)c1ccc(O)c(CO)c1.O=S(=O)(O)O (stereo not drawn) [Albuterol sulfate] |  | 2.96 |  | -75.51% |  | 12.09 |  |  |  |
| CCCCC(CC)CNC(=N)NC(=N)NCCCCCCNC(=N)NC(=N)NCC(CC)CCCC (stereo not drawn) [Alexidine Hydrochloride] | 1.68 |  | -94.54% |  | 30.77 |  | 1.68 | -94.54% | 30.77 |
| CN(C)CCc1c[nH]c2ccc(CS(=O)(=O)N3CCCC3)cc12 [Almotriptan] | 2.98 |  | -83.88% |  | 18.49 |  |  |  |  |
| CCCCC[C@H](O)/C=C/[C@H]1[C@H](O)CC(=O)[C@@H]1CCCCCCC(=O)O [Alprostadil] | 11.08 |  | -73.65% |  | 42.04 |  |  |  |  |
| CN(C)CCC=C1c2ccccc2CCc2ccccc21 [Amitriptyline hydrochloride] |  | 1.83 |  | -88.77% |  | 16.31 |  |  |  |
| CCOC(=O)C1=C(COCCN)NC(C)=C(C(=O)OC)C1c1ccccc1Cl (stereo not drawn) [Amlodipine Besylate] | 3.87 |  | -87.76% |  | 31.57 |  |  |  |  |
| COC(=O)C1=CCCN(C)C1 [Arecoline Hydrobromide] | 58.08 |  | 101.79% |  | 28.78 |  |  |  |  |
| CN1[C@@H]2CC[C@H]1C[C@@H](OC(=O)C(CO)c1ccccc1)C2 (stereo partly drawn) [Atropine Sulfate Monohydrate] | 0.90 | 0.9 | -96.27% | -96.27% | 24.16 | 24.16 |  |  |  |
| CN1[C@@H]2CC[C@H]1C[C@@H](OC(=O)C(CO)c1ccccc1)C2 (stereo partly drawn) [Atropine Sulfate] |  | -0.13 | -100.31% | -100.31% | 41.43 | 41.43 |  |  |  |
| CN1[C@@H]2CC[C@H]1C[C@@H](OC(=O)C(CO)c1ccccc1)C2 (stereo partly drawn) [Atropine] |  | -0.95 | -105.08% | -105.08% | 18.59 | 18.59 |  |  |  |
| CN1CCCC(n2nc(Cc3ccc(Cl)cc3)c3ccccc3c2=O)CC1 (stereo not drawn) [Azelastine Hydrochloride] | 3.47 |  | -90.42% |  | 36.21 |  | 3.47 | -90.42% | 36.21 |
| CN1[C@@H]2CC[C@H]1C[C@@H](OC(c1ccccc1)c1ccccc1)C2 [Benztropine Methanesulfonate] | 2.81 |  | -89.29% |  | 26.25 |  |  |  |  |
| CN1[C@@H]2CC[C@H]1C[C@@H](OC(c1ccccc1)c1ccccc1)C2 [Benztropine] | 1.35 |  | -93.68% |  | 21.42 |  |  |  |  |
| CC(C[N+](C)(C)C)OC(N)=O (stereo not drawn) [Bethanechol Chloride] | 37.55 |  | 94.89% |  | 19.27 |  |  |  |  |
| CN(C)CCOC(c1ccccc1)c1ccc(Br)cc1.Cl (stereo not drawn) [Bromazine hydrochloride] |  | -0.05 |  | -100.41% |  | 11.37 |  |  |  |
| CN(C)CCC(c1ccc(Br)cc1)c1ccccn1 (stereo not drawn) [Brompheniramine] | 0.64 | 0.64 | -96.48% | -96.48% | 18.22 | 18.22 | 0.64 | -96.48% | 18.22 |
| C[N+](C)(C)CCOC(N)=O [Carbachol] | 63.57 | 63.57 | 49.41% | 49.41% | 42.55 | 42.55 |  |  |  |
| CN(C)CCOC(c1ccc(Cl)cc1)c1ccccn1 (stereo not drawn) [Carbinoxamine Maleate] | 1.49 | 1.49 | -96.18% | -94.84% | 38.93 |  | 1.49 | -96.18% | 38.93 |
| CN(C)CCOC(c1ccc(Cl)cc1)c1ccccn1 (stereo not drawn) [Carbinoxamine] |  | 0.12 |  | -98.93% |  | 11.13 |  |  |  |
